US9814704B2, “Substituted pyrrolo[2,3-b]pyridines as MLK inhibitors” (The University of Rochester, priority 2008, dated 2017)
pIC50: −log10 of the molar value. Counter-ions that a name gives are not always drawn.

target: MLK3 (Homo sapiens (Human), UniProt Q16584); assay: Radiometric Filter Plate MLK3 Assay; type: biochemical; conditions: 200 ng (130 nM) MLK3, 1 μM inactive MKK7b, 2 μM cold ATP (Km), 33P ATP, twenty minute incubation; read-out: MK3 IC50
Procedure: Radiometric Filter Plate MLK3 Assay
After a twenty minute incubation, the reactions were washed through filter plates and read on a scintillation counter. Results are shown in Table 4 below, in which +++ indicates ≦0.1 μM, ++ indicates >0.1 μM and ≦1 μM, and + indicates >1 μM.

MLK3, sequence (Q16584 whole entry): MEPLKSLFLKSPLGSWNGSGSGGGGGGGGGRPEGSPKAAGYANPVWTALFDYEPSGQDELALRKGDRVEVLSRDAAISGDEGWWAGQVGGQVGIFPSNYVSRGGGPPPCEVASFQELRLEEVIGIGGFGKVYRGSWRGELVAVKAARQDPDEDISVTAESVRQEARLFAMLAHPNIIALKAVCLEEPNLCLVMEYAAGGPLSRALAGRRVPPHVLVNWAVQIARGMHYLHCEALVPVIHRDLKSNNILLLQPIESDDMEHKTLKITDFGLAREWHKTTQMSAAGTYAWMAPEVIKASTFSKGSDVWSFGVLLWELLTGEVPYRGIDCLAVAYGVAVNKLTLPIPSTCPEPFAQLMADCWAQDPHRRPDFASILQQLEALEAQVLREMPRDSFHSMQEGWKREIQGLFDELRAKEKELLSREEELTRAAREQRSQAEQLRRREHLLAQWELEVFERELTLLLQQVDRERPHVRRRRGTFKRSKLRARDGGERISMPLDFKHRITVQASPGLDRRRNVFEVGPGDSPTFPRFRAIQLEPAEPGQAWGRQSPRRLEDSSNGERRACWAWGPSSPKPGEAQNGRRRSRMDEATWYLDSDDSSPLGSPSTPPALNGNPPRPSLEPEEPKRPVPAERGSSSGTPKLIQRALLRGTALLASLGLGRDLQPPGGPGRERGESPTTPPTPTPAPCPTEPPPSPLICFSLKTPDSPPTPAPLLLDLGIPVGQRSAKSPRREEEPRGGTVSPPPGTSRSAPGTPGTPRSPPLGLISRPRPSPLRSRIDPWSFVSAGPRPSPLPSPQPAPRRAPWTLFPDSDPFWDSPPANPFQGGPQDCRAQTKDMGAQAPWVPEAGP

SMILES	pIC50
COc1cc(-c2cnc3[nH]c(=S)n(CC4CC4)c3n2)cc(OC)c1OC [Example 127, 1-(cyclopropylmethyl)-6-(3,4,5-trimethoxyphenyl)-1H-imidazo[4,5-b]pyrazine-2(3H)-thione]	< 6.00
COc1cc(-c2cnc3[nH]cc(-c4ccc(N(C)C)nc4)c3c2)cc(OC)c1OC [Example 19, N,N-dimethyl-5-(5-(3,4,5-trimethoxyphenyl)-1H-pyrrolo[2,3-b]pyridin-3-yl)pyridin-2-amine]	> 7.00
COc1cc(-c2cnc3c(c2)C(Cc2ccccc2)C(=O)N3)cc(OC)c1OC (stereo not shown) [Example 137, 3-benzyl-5-(3,4,5-trimethoxy-phenyl)-1,3-dihydro-pyrrolo[2,3-b]pyridin-2-one]	< 6.00

Now from value to compound:

pIC50	SMILES
> 7.00	CC(=O)N1CCN(C(=O)c2ccc(-c3cnc4[nH]cc(-c5ccc6[nH]ccc6c5)c4c3)cc2)CC1 [Example 146, 1-(4-{4-[3-(1H-indol-5-yl)-1H-pyrrolo[2,3-b]pyridin-5-yl]-benzoyl}-piperazin-1-yl)-ethanone]
< 6.00	COc1ccc(-c2cnc3[nH]c(=O)n(-c4ccc5[nH]ncc5c4)c3n2)cc1OC [Example 87, 6-(3,4-dimethoxyphenyl)-1-(1H-indazol-5-yl)-1H-imidazo[4,5-b]pyrazin-2(3H)-one]
> 7.00	COc1cc(-c2cnc3[nH]c(=O)n(-c4ccc5[nH]cnc5c4)c3n2)cc(OC)c1OC [Example 102, 1-(1H-benzo[d]imidazol-5-yl)-6-(3,4,5-trimethoxyphenyl)-1H-imidazo[4,5-b]pyrazin-2(3H)-one]
< 6.00	Cn1ccc2cc(-n3c(=O)[nH]c4ncc(-c5ccc(O)cc5)nc43)ccc21 [Example 42, 6-(4-hydroxyphenyl)-1-(1-methyl-1H-indol-5-yl)-1H-imidazo[4,5-b]pyrazin-2(3H)-one]
< 6.00	O=c1[nH]c2ncc(-c3cc(F)cc(F)c3)nc2n1-c1ccc2[nH]ccc2c1 [Example 61, 6-(3,5-difluorophenyl)-1-(1H-indol-5-yl)-1H-imidazo[4,5-b]pyrazin-2(3H)-one]
< 6.00	O=c1[nH]c2ncc(-c3ccncc3)nc2n1-c1ccc2[nH]ccc2c1 [Example 44, 1-(1H-indol-5-yl)-6-(pyridin-4-yl)-1H-imidazo[4,5-b]pyrazin-2(3H)-one]

same assay, conditions: read-out: MK3 IC50

SMILES	pIC50
COc1ccc(-c2cnc3[nH]cc(-c4ccc5[nH]ccc5c4)c3c2)cc1OC [Example 2, 5-(3,4-dimethoxyphenyl)-3-(1H-indol-5-yl)-1H-pyrrolo[2,3-b]pyridine]	6.00 to 7.00
CC(=O)N1CCN(C(=O)c2cccc(-c3cnc4[nH]cc(-c5ccc(C(N)=O)cc5)c4c3)c2)CC1 [Example 153, 4-{5-[3-(4-acetyl-piperazine-1-carbonyl)-phenyl]-1H-pyrrolo[2,3-b]pyridin-3-yl}-benzamide]	6.00 to 7.00
c1cc2cc(-c3c[nH]c4ncc(-c5ccc(N6CCNCC6)nc5)cc34)ccc2[nH]1 [Example 10, 3-(1H-indol-5-yl)-5-(6-(piperazin-1-yl)pyridin-3-yl)-1H-pyrrolo[2,3-b]pyridine]	6.00 to 7.00
NC(=O)c1ccc(-c2c[nH]c3ncc(-c4cccc(C(=O)N5CCNCC5)c4)cc23)cc1 [Example 152, 4-{5-[3-(piperazine-1-carbonyl)-phenyl]-1H-pyrrolo[2,3-b]pyridin-3-yl}-benzamide, hydrochloride salt]	6.00 to 7.00

Continued, values first:

pIC50	SMILES
6.00 to 7.00	COc1ccc(-c2cnc3[nH]c(=O)n(-c4ccccc4)c3n2)cc1OC [Example 106, 6-(3,4-dimethoxyphenyl)-1-phenyl-1H-imidazo[4,5-b]pyrazin-2(3H)-one]
6.00 to 7.00	O=c1[nH]c2ncc(-c3ccc(N4CCOCC4)cc3)nc2n1-c1ccc2[nH]ccc2c1 [Example 52, 1-(1H-indol-5-yl)-6-(4-morpholinophenyl)-1H-imidazo[4,5-b]pyrazin-2(3H)-one]
6.00 to 7.00	O=c1[nH]c2ncc(-c3ccc4c(c3)OCCO4)nc2n1-c1ccc2[nH]ccc2c1 [Example 63, 6-(2,3-dihydrobenzo[b][1,4]dioxin-6-yl)-1-(1H-indol-5-yl)-1H-imidazo[4,5-b]pyrazin-2(3H)-one]
